Laboratory results: ChEMBL document CHEMBL1201862, “PubChem BioAssay data set” (2004)
Activity calls are given as the source filed them. Rule as the data show it, for most assays here: actives have a measured AC50 and inactives only a lower limit.

Assays:
Trypsin = Trypsin (Sus scrofa, UniProt P00761); experiment: trypsin protease activity blockade – biochemical, quenched peptide fluorescence, cherry-pick, selectivity assay for Rce1 protease inhibitor project, dose response (AID 488789)
CAAX prenyl protease 2 = CAAX prenyl protease 2 (Homo sapiens, UniProt Q9Y256); experiment: inhibition of Ras-converting CAAX protease Rce1 – biochemical, yeast membranes, quenched-peptide fluorescence, cherry-pick, dose response (AID 588849)
Sequence of CAAX prenyl protease 2 (Q9Y256 whole entry): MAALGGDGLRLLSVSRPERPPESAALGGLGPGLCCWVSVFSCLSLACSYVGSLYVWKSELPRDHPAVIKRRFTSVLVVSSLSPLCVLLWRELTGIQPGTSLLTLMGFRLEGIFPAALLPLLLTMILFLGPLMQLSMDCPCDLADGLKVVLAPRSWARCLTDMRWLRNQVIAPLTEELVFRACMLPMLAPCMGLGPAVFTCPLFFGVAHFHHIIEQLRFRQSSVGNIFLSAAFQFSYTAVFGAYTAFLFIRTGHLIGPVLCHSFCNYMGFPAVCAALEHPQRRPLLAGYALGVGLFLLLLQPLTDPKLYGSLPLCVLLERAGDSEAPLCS

[1] = blockers of bursicon-stimulated LGR2 cAMP reporter – cell-based, HEK293, CRE-luciferase reporter, cherry pick, set 2, dose response (AID 743343); assay type: functional;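 also: transfected cells were stimulated with diluted bursicon conditioned medium after compound addition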
[2] = blockade of melanocortin 4 receptor signaling – cell-based, plate reader, cherry pick, counter-screen for LGR2 antagonist project, dose response (AID 743444); assay type: functional;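 also: transfected HEK 293 cells stimulated with alpha-MSH peptide; potency of inhibitors of the alpha-MSH evoked signal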
[3] = biological target: Luciferin 4-monooxygenase (Photuris pensylvanica, UniProt Q27757); experiment: inhibition of Cell Titer Glo luciferase signal – biochemical, luminescence, cherry-picks, counter-screen for HSF-1 reporter inhibitor project, dose response (AID 588847)
Sequence of Luciferin 4-monooxygenase (Q27757 whole entry): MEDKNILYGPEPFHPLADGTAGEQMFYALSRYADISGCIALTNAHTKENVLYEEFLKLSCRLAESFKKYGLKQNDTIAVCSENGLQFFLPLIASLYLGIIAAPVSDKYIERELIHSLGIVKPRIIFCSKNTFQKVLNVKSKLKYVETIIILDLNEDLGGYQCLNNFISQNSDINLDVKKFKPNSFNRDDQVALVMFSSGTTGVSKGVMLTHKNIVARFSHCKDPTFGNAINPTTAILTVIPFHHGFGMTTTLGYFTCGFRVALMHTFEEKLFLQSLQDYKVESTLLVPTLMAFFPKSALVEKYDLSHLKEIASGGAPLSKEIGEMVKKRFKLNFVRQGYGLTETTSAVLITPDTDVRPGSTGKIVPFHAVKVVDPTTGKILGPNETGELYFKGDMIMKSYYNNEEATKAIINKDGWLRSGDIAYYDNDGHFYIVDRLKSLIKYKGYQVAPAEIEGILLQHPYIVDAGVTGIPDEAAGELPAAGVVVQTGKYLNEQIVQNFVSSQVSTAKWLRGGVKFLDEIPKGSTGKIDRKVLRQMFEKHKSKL

Escherichia coli = experiment: microbe, parasite or virus in culture

Sequence of Trypsin (P00761 whole entry): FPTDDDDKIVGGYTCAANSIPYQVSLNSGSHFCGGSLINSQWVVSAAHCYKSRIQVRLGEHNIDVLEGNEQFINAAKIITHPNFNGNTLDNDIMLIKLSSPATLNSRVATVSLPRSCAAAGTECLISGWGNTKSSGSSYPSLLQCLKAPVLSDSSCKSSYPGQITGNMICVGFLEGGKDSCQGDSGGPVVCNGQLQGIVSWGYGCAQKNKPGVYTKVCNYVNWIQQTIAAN

## CC(=O)NN1C(=O)c2ccccc2NC1c1ccoc1 (stereo unspecified)
Trypsin
  AC50: 32.4 µM (active)
CAAX prenyl protease 2
  AC50: > 100 µM (inactive)

## CCS(=O)(=O)N1Cc2ccccc2CC1C(=O)Nc1nc2ccccc2s1 (stereo unspecified)
[1]
  AC50: 4.13 µM (active)
[2]
  AC50: 4.56 µM (active)
[3]
  AC50: 15.2 µM (active)

## COC(=O)c1ccc(Cl)cc1NC(=O)/C=C/c1ccc(C)o1
Escherichia coli
  AC50: 83 µM (active)
